Measurements as given in ChEMBL document CHEMBL1151500, “Inhibition of calpain by peptidyl heterocycles” (Bioorg Med Chem Lett, 1996).

Molecular target: T1, Calpain-1 catalytic subunit (Homo sapiens) (UniProt P07384)
T1 sequence (whole entry): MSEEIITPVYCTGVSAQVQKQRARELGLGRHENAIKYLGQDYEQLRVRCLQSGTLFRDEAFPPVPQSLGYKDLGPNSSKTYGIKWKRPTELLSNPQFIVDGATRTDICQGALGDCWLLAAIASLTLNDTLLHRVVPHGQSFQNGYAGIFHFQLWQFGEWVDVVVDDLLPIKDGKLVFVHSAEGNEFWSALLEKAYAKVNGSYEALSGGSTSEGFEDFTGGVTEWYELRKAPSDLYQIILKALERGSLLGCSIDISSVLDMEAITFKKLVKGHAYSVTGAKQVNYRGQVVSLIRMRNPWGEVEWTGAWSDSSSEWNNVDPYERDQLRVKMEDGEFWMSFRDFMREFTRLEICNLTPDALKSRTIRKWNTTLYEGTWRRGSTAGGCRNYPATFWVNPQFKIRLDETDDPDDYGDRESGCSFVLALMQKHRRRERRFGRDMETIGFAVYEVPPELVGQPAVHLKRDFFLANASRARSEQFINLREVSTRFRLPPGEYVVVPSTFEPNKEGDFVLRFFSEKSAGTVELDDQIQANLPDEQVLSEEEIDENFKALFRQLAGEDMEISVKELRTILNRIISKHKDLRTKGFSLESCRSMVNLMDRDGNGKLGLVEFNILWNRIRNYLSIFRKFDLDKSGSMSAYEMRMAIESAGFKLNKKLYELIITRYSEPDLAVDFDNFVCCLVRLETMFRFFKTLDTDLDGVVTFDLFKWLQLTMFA
Experiment: Inhibitory activity against human recombinant Calpain 1 at a concentration of 10 uM

Structure (SMILES) | inhibition
CC(C)C[C@H](NC(=O)OCc1ccccc1)C(=O)N[C@@H](CC(C)C)C(=O)c1nccn1Cc1ccccc1 | 39%
CC(C)C[C@H](NC(=O)OC(C)(C)C)C(=O)N[C@@H](CC(C)C)C(=O)c1ncc[nH]1 | 77%
CC(C)C[C@H](NC(=O)OCc1ccccc1)C(=O)N[C@@H](CC(C)C)C(=O)N[C@@H](Cc1ccccc1)C(=O)c1nccs1 | 54%
CC(C)C[C@H](NC(=O)OCc1ccccc1)C(=O)N[C@@H](CC(C)C)C(=O)c1nccn1COCC[Si](C)(C)C | 0%
CC(C)C[C@H](NC(=O)OCc1ccccc1)C(=O)N[C@@H](CC(C)C)C(=O)C1N=NN=N1 | 11%
CC(C)C[C@H](NC(=O)OCc1ccccc1)C(=O)N[C@@H](CC(C)C)C(=O)c1ncc[nH]1 | 0%
